# From PubChem BioAssay AID1918958 (Molecular Pharmacology Branch, DTP, NCI, 2023)
# “And” between values parts separate entries of the source, which are not always exact repeats. Equal entries are not always repeated.
# Tested on: NCI-H196 complex spheroid viability
# Assay: Anticancer human tumor NCI-H196 cell line growth inhibition [LSD1];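 note: spheroids exposed to agents for 7 days before readout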;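 for viability, T/C: 100% = DMSO vehicle control viability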
# Settings: for viability, T/C: stronger effect = lower value
# How it was run: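 Drug combinations with the LSD1 inhibitor iadademstat tested on tumor cells co-cultured as spheroids with endothelial cells and mesenchymal stem cells. Concentrations descended in half-log increments from clinical Cmax or 10 microM.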
# [1] = curve of first compound, second compound 0.1 µM
# [2] = curve of first compound, second compound 0.316 µM
# [3] = curve of first compound, second compound 1 µM
# [4] = curve of first compound, second compound 3.16 µM
# [5] = curve of first compound, second compound 10 µM
# [6] = second compound 0.1 µM, first compound 0.00316 µM
# [7] = second compound 0.1 µM, first compound 0.01 µM
# [8] = second compound 0.1 µM, first compound 0.0316 µM
# [9] = second compound 0.1 µM, first compound 0.1 µM
# [10] = second compound 0.316 µM, first compound 0.00316 µM
# [11] = second compound 0.316 µM, first compound 0.01 µM
# [12] = second compound 0.316 µM, first compound 0.0316 µM
# [13] = second compound 0.316 µM, first compound 0.1 µM
# [14] = second compound 1 µM, first compound 0.00316 µM
# [15] = second compound 1 µM, first compound 0.01 µM
# [16] = second compound 1 µM, first compound 0.0316 µM
# [17] = second compound 1 µM, first compound 0.1 µM
# [18] = second compound 3.16 µM, first compound 0.00316 µM
# [19] = second compound 3.16 µM, first compound 0.01 µM
# [20] = second compound 3.16 µM, first compound 0.0316 µM
# [21] = second compound 3.16 µM, first compound 0.1 µM
# [22] = second compound 10 µM, first compound 0.00316 µM
# [23] = second compound 10 µM, first compound 0.01 µM
# [24] = second compound 10 µM, first compound 0.0316 µM
# [25] = second compound 10 µM, first compound 0.1 µM
# [26] = second compound 0.1 µM, first compound 0.000316 µM
# [27] = second compound 0.1 µM, first compound 0.001 µM
# [28] = second compound 0.316 µM, first compound 0.000316 µM
# [29] = second compound 0.316 µM, first compound 0.001 µM
# [30] = second compound 1 µM, first compound 0.000316 µM
# [31] = second compound 1 µM, first compound 0.001 µM
# [32] = second compound 3.16 µM, first compound 0.000316 µM
# [33] = second compound 3.16 µM, first compound 0.001 µM
# [34] = second compound 10 µM, first compound 0.000316 µM
# [35] = second compound 10 µM, first compound 0.001 µM
SMILES,IC50 [1] [nM],IC50 [2] [nM],IC50 [3] [nM],IC50 [4] [nM],IC50 [5] [nM],"viability, T/C [6] [%]","viability, T/C [7] [%]","viability, T/C [8] [%]","viability, T/C [9] [%]","viability, T/C [10] [%]","viability, T/C [11] [%]","viability, T/C [12] [%]","viability, T/C [13] [%]","viability, T/C [14] [%]","viability, T/C [15] [%]","viability, T/C [16] [%]","viability, T/C [17] [%]","viability, T/C [18] [%]","viability, T/C [19] [%]","viability, T/C [20] [%]",other results
O=C(C=Cn1cnc(-c2cc(C(F)(F)F)cc(C(F)(F)F)c2)n1)NNc1cnccn1 + NC1CCC(NC2CC2c2ccccc2)CC1,< 3.16,< 3.16,< 3.16,< 3.16,< 3.16,32.9,27.2,22.3,15.1,31.6,25.9,19.7,14.1,38,25.1,22.3,17.1,30.6,29.2,21.1,"viability, T/C (second compound 0.1 µM, first compound 0.316 µM): 14.4%; viability, T/C (second compound 0.1 µM, first compound 1 µM): 9.29%; viability, T/C (second compound 0.316 µM, first compound 0.316 µM): 14.5%; viability, T/C (second compound 0.316 µM, first compound 1 µM): 10.1%; viability, T/C (second compound 1 µM, first compound 0.316 µM): 15.7%; viability, T/C (second compound 1 µM, first compound 1 µM): 10.4%; viability, T/C [21]: 17.1%; viability, T/C (second compound 3.16 µM, first compound 0.316 µM): 13.9%; viability, T/C (second compound 3.16 µM, first compound 1 µM): 12.9%; viability, T/C [22]: 38.2%; viability, T/C [23]: 25.6%; viability, T/C [24]: 16%; viability, T/C [25]: 19.1%; viability, T/C (second compound 10 µM, first compound 0.316 µM): 14.5%; viability, T/C (second compound 10 µM, first compound 1 µM): 11.9%"
CC(C)CC(NC(=O)CNC(=O)c1cc(Cl)ccc1Cl)B1OC(=O)CC(CC(=O)O)(C(=O)O)O1 (configuration not stated) + NC1CC1c1ccc(-c2cccc(O)c2)cc1,13.6,13.4,10.1,10.5,10.2,97.6,58.7,21.7,4.21,92.8,59.9,19,4.26,93.3,48.8,17,4.69,89.2,49.3,19.2,"viability, T/C [26]: 99.7%; viability, T/C [27]: 100%; viability, T/C [28]: 92.7%; viability, T/C [29]: 99.2%; viability, T/C [30]: 97.5%; viability, T/C [31]: 106%; viability, T/C [32]: 91%; viability, T/C [33]: 109%; viability, T/C [21]: 3.44%; viability, T/C [34]: 105%; viability, T/C [35]: 98.8%; viability, T/C [22]: 84.2%; viability, T/C [23]: 52.9%; viability, T/C [24]: 13.4%; viability, T/C [25]: 2.91%"
CC[C@@]1(O)C(=O)OCc2c1cc1n(c2=O)Cc2cc3c(CN(C)C)c(O)ccc3nc2-1 + NC1CC1c1ccc(-c2cccc(O)c2)cc1,> 100,> 100,> 100,> 100,> 100,115,105,95.7,99.5,102,109,109,95.9,104,100,103,94.8,92.2,101,91,"viability, T/C [26]: 95.1%; viability, T/C [27]: 101%; viability, T/C [28]: 97.3%; viability, T/C [29]: 104%; viability, T/C [30]: 92.4%; viability, T/C [31]: 93.8%; viability, T/C [32]: 90.7%; viability, T/C [33]: 95.3%; viability, T/C [21]: 82.6%; viability, T/C [34]: 88.8%; viability, T/C [35]: 90.4%; viability, T/C [22]: 102%; viability, T/C [23]: 115%; viability, T/C [24]: 98.2%; viability, T/C [25]: 78.2%"
Nc1ccn(C2OC(CO)C(O)C2(F)F)c(=O)n1 (configuration not stated),–,–,–,–,–,–,–,–,–,–,–,–,–,–,–,–,–,–,–,–,"viability, T/C (compound 0.000949 µM): 98.3% and 103%; viability, T/C (compound 0.003 µM): 95.8% and 101%; viability, T/C (compound 0.00949 µM): 97.9% and 81.6%; viability, T/C (compound 0.03 µM): 66.4% and 65.5%; viability, T/C (compound 0.0949 µM): 68.4% and 66.2%; viability, T/C (compound 0.3 µM): 63.8%; IC50 (curve of compound): > 300 nM"
